Measurements taken from ChEMBL document CHEMBL4382254, “Design, synthesis, structure-activity relationships and mechanism of action of new quinoline derivatives as potential antitumor agents” (Eur J Med Chem, 2019).
Active and inactive are the calls of the source. The rule behind the calls is not given here.

What was measured:
[1] = molecular target: Cellular tumor antigen p53 (Homo sapiens) (UniProt P04637); assay: Activation of P53 in human HCT116 cells assessed as increase in p21 expression at 2.5 to 20 uM after 24 hrs by immunoblot analysis; assay type: cell-based
[2] = molecular target: Cellular tumor antigen p53 (Homo sapiens) (UniProt P04637); assay: Activation of P53 in human HCT116 cells assessed as increase in Bax expression at 2.5 to 20 uM after 24 hrs by immunoblot analysis; assay type: cell-based
[3] = test system: HCT-116; assay: Induction of apoptosis in human HCT116 cells assessed as necrotic cells at 2.5 to 5 uM after 24 hrs in presence of pan-caspase inhibitor z-VAD-FMK by Annexin V-FITC/propidium iodide staining based flow cytometry (reference value: 1.83%); assay type: functional
[4] = test system: DLD-1; assay: Induction of morphological changes in human DLD1 cells assessed as cell shrinkage at 5 to 10 uM after 24 hrs by phase contrast microscopic analysis; assay type: functional, cell-based
[5] = test system: HCT-116; assay: Cytotoxicity against human HCT116 cells assessed as reduction in cell viability at 5 uM incubated for 24 hrs followed by compound washout by CCK8 assay; assay type: functional, cell-based; conditions: TDE = time-dependent effect
[6] = test system: HCT-116; assay: Cell cycle arrest in human HCT116 cells assessed as accumulation at G2/M phase at 5 uM after 48 hrs by propidium iodide staining based flow cytometry (reference value: 11.24%); assay type: functional
[7] = test system: HCT-116; assay: Anticancer activity against human HCT116 cells xenografted in […] mouse assessed as tumor growth inhibition at 80 mg/kg administered once every 3 days for 21 days; assay type: functional, organism-based
[8] = test system: HCT-116; assay: Induction of apoptosis in human HCT116 cells assessed as early apoptotic cells at 2.5 uM after 24 hrs by Annexin V-FITC/propidium iodide staining based flow cytometry (reference value: 3.32%); assay type: functional
[9] = test system: HCT-116; assay: Induction of apoptosis in human HCT116 cells assessed as late apoptotic cells at 5 uM after 24 hrs by Annexin V-FITC/propidium iodide staining based flow cytometry (reference value: 6.08 to 11.92%); assay type: functional
[10] = test system: HCT-116; assay: Induction of apoptosis in human HCT116 cells assessed as decrease in pro-caspase3 level at 2.5 to 10 uM after 24 hrs by immunoblot analysis; assay type: functional, cell-based
[11] = test system: HCT-116; assay: Cell cycle arrest in human HCT116 cells assessed as accumulation at G0/G1 phase at 5 uM after 24 hrs by propidium iodide staining based flow cytometry (reference value: 77.78%); assay type: functional
[12] = test system: RKO; assay: Cytotoxicity against human RKO cells assessed as reduction in cell viability at 5 uM incubated for 24 hrs followed by compound washout by CCK8 assay; assay type: functional, cell-based; conditions: TDE = time-dependent effect
[13] = test system: FHC; assay: Cytotoxicity against human FHC cells assessed as reduction in cell viability at 10 to 20 uM incubated for 24 hrs by CCK8 assay; assay type: cell-based
[14] = test system: HCT-116; assay: Cell cycle arrest in human HCT116 cells assessed as accumulation at S phase at 5 uM after 24 hrs by propidium iodide staining based flow cytometry (reference value: 5.55%); assay type: functional
[15] = test system: HCT-116; assay: Induction of apoptosis in human HCT116 cells assessed as viable cells at 5 uM after 24 hrs by Annexin V-FITC/propidium iodide staining based flow cytometry (reference value: 73.26 to 87.19%); assay type: functional; conditions: HCT-116, 24 h, read-out: Activity
[16] = test system: DLD-1; assay: Cytotoxicity against human DLD1 cells after 48 hrs by MTT assay; assay type: functional, cell-based; conditions: DLD-1, 48 h
[17] = test system: HCT-116; assay: Induction of apoptosis in P53-deficient human HCT116 cells assessed as increase in PUMA expression at 2.5 to 20 uM after 24 hrs by immunoblot analysis; assay type: functional, cell-based
[18] = molecular target: Cellular tumor antigen p53 (Homo sapiens) (UniProt P04637); assay: Activation of P53 in human HCT116 cells assessed as decrease in PARP expression at 2.5 to 20 uM after 24 hrs by immunoblot analysis; assay type: cell-based
[19] = test system: HCT-116; assay: Induction of morphological changes in human HCT116 cells assessed as reduction in cell number at 5 to 10 uM after 24 hrs by phase contrast microscopic analysis; assay type: functional, cell-based
[20] = test system: HCT-116; assay: Cell cycle arrest in human HCT116 cells assessed as accumulation at G2/M phase at 5 uM after 24 hrs by propidium iodide staining based flow cytometry (reference value: 16.3%); assay type: functional
[21] = molecular target: Cellular tumor antigen p53 (Homo sapiens) (UniProt P04637); assay: Induction of P53 phosphorylation at Ser15 residue in human HCT116 cells after 15 to 90 mins by immunoblot analysis; assay type: cell-based
[22] = test system: HCT-116; assay: Cytotoxicity against P53-deficient human HCT116 cells assessed as reduction in cell viability measured after 24 hrs by CCK8 assay; assay type: functional, cell-based; conditions: HCT-116, 24 h
[23] = test system: HCT-116; assay: Induction of apoptosis in P53-deficient human HCT116 cells assessed as early apoptotic cells at 5 uM after 24 hrs by Annexin V-FITC/propidium iodide staining based flow cytometry (reference value: 5.96%); assay type: functional
[24] = test system: HCT-116; assay: Induction of apoptosis in human HCT116 cells assessed as increase in early apoptotic cells after 24 hrs by Annexin V-FITC/propidium iodide staining based flow cytometry; assay type: functional, cell-based
[25] = test system: HCT-116; assay: Induction of apoptosis in human HCT116 cells assessed as late apoptotic cells at 2.5 uM after 24 hrs by Annexin V-FITC/propidium iodide staining based flow cytometry (reference value: 6.08%); assay type: functional
[26] = test system: HCT-116; assay: Induction of autophagy in human HCT116 cells expressing GFP-LC3 assessed as increase in LC3 puncta formation at 10 uM after 24 hrs by fluorescence microscopic analysis; assay type: functional, cell-based
[27] = test system: HCT-116; assay: Induction of apoptosis in Bax-deficient human HCT116 cells assessed as viable cells at 5 uM after 24 hrs by Annexin V-FITC/propidium iodide staining based flow cytometry (reference value: 70.58%); assay type: functional; conditions: HCT-116, 24 h, read-out: Activity
[28] = test system: HCT-116; assay: Cell cycle arrest in human HCT116 cells assessed as accumulation at S phase at 5 uM after 48 hrs by propidium iodide staining based flow cytometry (reference value: 6.79%); assay type: functional
[29] = test system: HCT-116; assay: Induction of apoptosis in human HCT116 cells assessed as increase in late apoptotic cells after 24 hrs by Annexin V-FITC/propidium iodide staining based flow cytometry; assay type: functional, cell-based
[30] = molecular target: Cellular tumor antigen p53 (Homo sapiens) (UniProt P04637); assay: Activation of P53 in human HCT116 cells assessed as increase in PUMA expression at 2.5 to 20 uM after 24 hrs by immunoblot analysis; assay type: cell-based
[31] = test system: RKO; assay: Induction of morphological changes in human RKO cells assessed as cell shrinkage at 5 to 10 uM after 24 hrs by phase contrast microscopic analysis; assay type: functional, cell-based
[32] = test system: HCT-116; assay: Induction of apoptosis in human HCT116 cells assessed as late apoptotic cells at 2.5 to 5 uM after 24 hrs in presence of pan-caspase inhibitor z-VAD-FMK by Annexin V-FITC/propidium iodide staining based flow cytometry (reference value: 7.29%); assay type: functional
[33] = test system: HCT-116; assay: Induction of apoptosis in human HCT116 cells assessed as increase in cleaved PARP level after 24 hrs in presence of pan-caspase inhibitor z-VAD-FMK by immunoblot analysis; assay type: functional, cell-based
[34] = test system: BGC-823; assay: Cytotoxicity against human BGC823 cells after 48 hrs by MTT assay; assay type: functional, cell-based; conditions: BGC-823, 48 h
[35] = test system: HCT-116; assay: Cytotoxicity against human HCT116 cells assessed as reduction in cell viability measured after 24 hrs by CCK8 assay; assay type: functional, cell-based; conditions: HCT-116, 24 h
[36] = test system: HCT-116; assay: Induction of apoptosis in P53-deficient human HCT116 cells assessed as late apoptotic cells at 5 uM after 24 hrs by Annexin V-FITC/propidium iodide staining based flow cytometry (reference value: 34.09%); assay type: functional

Cellular tumor antigen p53 (Homo sapiens), sequence (P04637 whole entry, looked up): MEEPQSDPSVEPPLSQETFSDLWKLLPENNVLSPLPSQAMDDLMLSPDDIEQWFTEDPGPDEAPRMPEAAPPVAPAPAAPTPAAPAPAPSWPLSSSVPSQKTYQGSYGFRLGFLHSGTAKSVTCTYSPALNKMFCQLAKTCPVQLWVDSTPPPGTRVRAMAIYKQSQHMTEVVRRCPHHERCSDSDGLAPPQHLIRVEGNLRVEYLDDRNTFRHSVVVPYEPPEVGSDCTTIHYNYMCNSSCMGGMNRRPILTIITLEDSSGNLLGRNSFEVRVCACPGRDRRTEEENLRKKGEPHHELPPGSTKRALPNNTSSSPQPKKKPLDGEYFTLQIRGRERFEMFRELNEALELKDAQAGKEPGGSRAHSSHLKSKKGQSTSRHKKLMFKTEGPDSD

## CN(C)CCNc1ccnc2cc(OCc3ccc(F)cc3)ccc12
[1]
  Activity: Active
[2]
  Activity: Active
[3]
  Activity: 2.65%
[4]
  Activity: Active
[5]
  Activity: Tde
[6]
  Activity: 8.88%
[7]
  TGI: Active
[8]
  Activity: 4.94%
[9]
  Activity: 17.49 - 17.54%
[10]
  Activity: Active
[11]
  Activity: 82.21%
[12]
  Activity: Tde
[13]
  Activity: Toxic
[14]
  Activity: 4.38%
[15]
  viability at 5 µM: 52.5 to 69.1%
[16]
  IC50: 0.81 µM
[17]
  Activity: inactive
[18]
  Activity: Active
[19]
  Activity: Active
[20]
  Activity: 12.94%
[21]
  Activity: Active
[22]
  IC50: 18.1 µM
[23]
  Activity: 5.29%
[24]
  Activity: Dose-dependent effect
[25]
  Activity: 10.32%
[26]
  Activity: inactive
[27]
  viability at 5 µM: 77.3%
[28]
  Activity: 7.61%
[29]
  Activity: Dose-dependent effect
[30]
  Activity: Active
[31]
  Activity: Active
[32]
  Activity: 10.05%
[33]
  Activity: inactive
[34]
  IC50: 0.89 µM
[35]
  IC50: 72.8 µM
[36]
  Activity: 14.05%
